# Bridge positions count the residues as written; N and C are the ends. Ends that are not written are not given here.
# Columns and labels:
# Type in all cases: in vivo
# [1] = system: TNFα-dependent septic shock in mice; assay: model of endotoxinic shock (LPS with Galactosamine) after preimmunization; conditions: Balb/c mice preimmunized with KLH-coupled peptide, shock on day D50 by LPS with Galactosamine; control KLH alone; p=0.008
# Experimental: 4 murine TNFα peptides coupled to the KLH carrier protein, including the cyclized peptide CVSRFAISYQEKVNLLSC (SEQ ID NO:15) called TNFα-6, were tested in a model of endotoxinic shock. For this purpose, Balb/c mice were preimmunized against these peptides on days D0, […], and D40. On day D50, the mice were subjected to shock, i.e. they were injected with LPS with Galactosamine. A control was carried out on mice immunized against KLH alone.
# It is noted that all the mice died after two days, except for the group immunized against the TNFα-6 peptide where the mice were protected. The protection conferred by the immunization was very significant (p=0.008).
# native mIL1β cytokine = assay: ELISA test of serum antibodies against native mIL1β after immunization; set-up: unit not given here; conditions: ELISA on serum day D50; groups of 4 mice, 20 ug peptide coupled to KLH, boosters D20 and D40
# Experimental: (§1) 6 groups of 4 mice were immunized against 20 ug of the murine IL1β peptides IRQLHYRLRDEQQKSL (group 1) (SEQ ID NO:11), SFVQGEPSNDKIP (group 2) (SEQ ID NO:12), QYPKKKMEKRFVFNKIEV (group 3) (SEQ ID NO:13), IIDFTMESVSS (group 4) (SEQ ID NO:14), and 20 ug of the murine TNFα peptide KYLDFAESGQVY (group 5) (SEQ ID NO:6) all coupled to KLH. Group 6 corresponds to mice immunized by KLH alone. A booster was administered on days D20 and D40. On day D50 the mice were sacrificed and the antibodies directed against the native mTNFα cytokine and the native mIL1β cytokine in the serums were measured by an ELISA test.
# native mTNFα cytokine = assay: ELISA test of serum antibodies against native mTNFα after immunization; set-up: unit not given here; conditions: ELISA on serum day D50; groups of 4 mice, 20 ug peptide coupled to KLH, boosters D20 and D40
# Experimental: as §1
# [2] = system: collagen arthritis induced in mice; assay: model of collagen arthritis after preimmunization; conditions: DBA1 mice preimmunized with KLH-coupled peptide, collagen in Freund's adjuvant D80 and D95, scored D100-D160; control KLH alone; p=0.0003, ANOVA test
# Experimental: 3 murine IL1β peptides coupled to the KLH protein, including the cyclized IL1-6 peptide of sequence YCYISTSQAEHKPVFLGC (SEQ ID NO:16), were tested in a model of collagen arthritis. For this purpose, DBA1 mice were preimmunized against these peptides on days D0, D20, D40, […]. On day D80 the mice were immunized against collagen in Freund's adjuvant, and similarly on day D95. The development of arthritis was monitored between day D100 and day D160: twice weekly, the mice were examined and a score was attributed to them as a function of the state of inflammation of their joints (0=no inflammation, 1=slight inflammation, 2=average inflammation, 3=strong inflammation).
Sequence,survival of mice subjected to septic shock (protection) [1],Anti-IL1β response Average (native mIL1β cytokine),Anti-TNFα response Average (native mTNFα cytokine),clinical score of joint inflammation (protection with respect to control) [2]
"CVSRFAISYQEKVNLLSC (disulfide 1-18 (inferred)) [TNFα-6, cyclized murine TNFα peptide]",protected,–,–,–
"IRQLHYRLRDEQQKSL [Group 1, murine IL1β peptide 3-18]",–,1.5,0.13,–
"VSRFAISYQEKVNLLS [SEQ ID NO:1, peptide area 80-95 of the murine TNFα cytokine]",capable of blocking TNFα-dependent septic shock in mice,–,–,–
"QYPKKKMEKRFVFNKIEV [Group 3, murine IL1β peptide 89-106]",–,1.6,0.18,–
"YISTSQAEHKPVFLG [SEQ ID NO:3, peptide area 121-135 of the murine IL1β cytokine]",–,–,–,capable of blocking collagen arthritis induced in mice
"IIDFTMESVSS [Group 4, murine IL1β peptide 142-152]",–,0.8,0.12,–
"KYLDFAESGQVY [Group 5, murine TNFα peptide 140-150]",–,0.31,1.3,–
"YCYISTSQAEHKPVFLGC (disulfide 2-18 (inferred); also: coupled to KLH carrier protein) [IL1β-6, cyclized murine IL1β peptide]",–,–,–,strong protection level
"SFVQGEPSNDKIP [Group 2, murine IL1β peptide 45-57]",–,1.9,0.15,–
